Results on three compounds are retold here after ChEMBL document CHEMBL1151095, “Anti-human immunodeficiency virus type-1 (HIV-1) and anti-hepatitis B virus (HBV) activities of (2,3-dideoxy-2-fluoro--L-threo-pentofuranosyl)nucleosides” (Bioorg Med Chem Lett, 1995).

One assay deals with Vero. Kind of assay: Cytotoxicity in Vero cells. The class given is functional, cell-based. To be noted: Chlorocebus sabaeus.
A further assay deals with CCRF-CEM. The assay is described as follows: Cytotoxicity in CEM cells. The class given is functional, cell-based. The following applies: Homo sapiens.
A short description of assay [1]: In vitro anti-HIV activity was evaluated in human peripheral blood mononuclear (PBM) cells. Format: functional.
Assay [2] is described as follows: Cytotoxicity in human peripheral blood mononuclear (PBM) cells. The class given is functional, cell-based.
The species named for assay [3] is Homo sapiens. The assay is described as follows: Cytotoxicity in 2.2.15 cells. The class given is functional, cell-based. To be noted: HepG2 2.2.15.
Assay [4] is filed under the species Homo sapiens. Kind of assay: In vitro anti-HBV activity in 2.2.15 cells. To be noted: HepG2 2.2.15. Format: functional, cell-based.

SMILES strings stand for the structures. pEC50, pIC50: −log10 of the molar value.

As to `Nc1ccn([C@@H]2O[C@H](CO)C[C@@H]2F)c(=O)n1`, the negative logarithm of the IC50 (pIC50) with Vero was less than 4.00; in the assay with CCRF-CEM, less than 4.00; in assay [2], less than 4.00; in the assay filed under Homo sapiens [3], less than 3.70. Further, the negative-log EC50 (pEC50) in assay [1] was 4.79; in the assay listed under Homo sapiens [4], 5.40.
For `Nc1ncnc2c1ncn2[C@@H]1O[C@H](CO)C[C@@H]1F` [LODENOSINE], the pIC50 was less than 4.00 in the assay on Vero, less than 4.00 in the assay on CCRF-CEM, less than 4.00 in assay [2] and less than 3.70 in the assay filed under Homo sapiens [3]. Further, the pEC50 was 4.00 in assay [1] and less than 5.00 in the assay filed under Homo sapiens [4].
For the compound `Cc1cn([C@H]2C[C@H](N=[N+]=[N-])[C@@H](CO)O2)c(=O)[nH]c1=O` [ZIDOVUDINE], in assay [1], the pEC50 was 8.40. This compound also gave a negative logarithm of the IC50 (pIC50) in assay [2] of less than 4.00.
